A word on the Tmax: it is the time at which the peak concentration occurs. The term half-life denotes the time in which the quantity being followed falls by half. Lower therefore signals rapid decline.

The nature of this data set: clinical. The settings on record: male, human, plasma, po.

Protocol: Sixteen male volunteers, aged 22 to 55 years, received oral Compound (I) (2 mg Q 12 h), M (500 mg Q12 h), or the combination, each for 4 days.

For `CN(C)C(=N)N=C(N)N` [M, 1,1-Dimethylbiguanidine, reference compound], the Tmax is 3 h.

Consider `CN(CCOc1ccc(CC2SC(=O)NC2=O)cc1)c1ccccn1` (stereo not drawn) [Compound (I), 5-[4-[2-(N-methyl-N-(2-pyridyl)amino)ethoxy]benzyl]thiazolidine-2,4-dione], for which the Tmax turned out to be 3 h and the half-life is 194 min.

The values are drawn from patent US20080090881A1, “TREATMENT OF DIABETES WITH THIAZOLIDINEDIONE AND METFORMIN” (SmithKline Beecham plc, priority 1997, published 2008).
